Measurements reported in PubChem BioAssay AID248 (DTP/NCI, 2004).
“And” between values parts separate entries of the source, which are not always exact repeats. Identical values can stand only once. Inconclusive results and toxic doses are left out.

System: L1210 leukemia ip in BDF1 mice, survival T/C
Assay: NCI In Vivo Anticancer Drug Screen. Data for tumor model L1210 Leukemia (intraperitoneal) in B6D2F1 (BDF1) mice
Settings: higher = longer survival
Summary of the method: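 Value reflects the ratio of survival in compound-treated mice to survival in vehicle-treated controls, with both groups carrying the same transplanted tumor.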

[1] = endpoint: mean survival time, dose: 100.0 mg/kg/injection, schedule: Q04DX002 (ip), vehicle: saline
[2] = endpoint: mean survival time, dose: 200.0 mg/kg/injection, schedule: Q04DX002 (ip), vehicle: saline
[3] = endpoint: mean survival time, dose: 400.0 mg/kg/injection, schedule: Q04DX002 (ip), vehicle: saline
[4] = endpoint: mean survival time, dose: 100.0 mg/kg/injection, schedule: Q01DX009 (ip), vehicle: saline with Tween-80
[5] = endpoint: mean survival time, dose: 200.0 mg/kg/injection, schedule: Q01DX009 (ip), vehicle: saline with Tween-80
[6] = endpoint: mean survival time, dose: 400.0 mg/kg/injection, schedule: Q01DX009 (ip), vehicle: saline with Tween-80
[7] = endpoint: mean survival time, dose: 50.0 mg/kg/injection, schedule: Q01DX009 (ip), vehicle: saline with Tween-80
[8] = endpoint: mean survival time, dose: 100.0 mg/kg/injection, schedule: Q04DX003 (ip), vehicle: saline with Tween-80
[9] = endpoint: mean survival time, dose: 200.0 mg/kg/injection, schedule: Q04DX003 (ip), vehicle: saline with Tween-80
[10] = endpoint: mean survival time, dose: 400.0 mg/kg/injection, schedule: Q04DX003 (ip), vehicle: saline with Tween-80
[11] = endpoint: mean survival time, dose: 100.0 mg/kg/injection, schedule: Q04DX002 (ip), vehicle: saline with Tween-80
[12] = endpoint: mean survival time, dose: 200.0 mg/kg/injection, schedule: Q04DX002 (ip), vehicle: saline with Tween-80
[13] = endpoint: mean survival time, dose: 400.0 mg/kg/injection, schedule: Q04DX002 (ip), vehicle: saline with Tween-80
[14] = endpoint: mean survival time, dose: 400.0 mg/kg/injection, schedule: Q01DX001 (ip), vehicle: saline
[15] = endpoint: mean survival time, dose: 100.0 mg/kg/injection, schedule: Q01DX001 (ip), vehicle: saline
[16] = endpoint: mean survival time, dose: 200.0 mg/kg/injection, schedule: Q01DX001 (ip), vehicle: saline
[17] = endpoint: mean survival time, dose: 100.0 mg/kg/injection, schedule: Q04DX003 (ip), vehicle: Klucel (hydroxypropylcellulose) (HPC)
[18] = endpoint: mean survival time, dose: 200.0 mg/kg/injection, schedule: Q04DX003 (ip), vehicle: Klucel (hydroxypropylcellulose) (HPC)
[19] = endpoint: mean survival time, dose: 400.0 mg/kg/injection, schedule: Q04DX003 (ip), vehicle: Klucel (hydroxypropylcellulose) (HPC)
[20] = endpoint: mean survival time, dose: 100.0 mg/kg/injection, schedule: Q01DX001 (ip), vehicle: saline with Tween-80
[21] = endpoint: mean survival time, dose: 200.0 mg/kg/injection, schedule: Q01DX001 (ip), vehicle: saline with Tween-80
[22] = endpoint: mean survival time, dose: 400.0 mg/kg/injection, schedule: Q01DX001 (ip), vehicle: saline with Tween-80

SMILES: CC1(C)C2CCC1(C)C(O)C2=O (stereo unspecified)
- T/C (endpoint: mean survival time, dose: 75.0 mg/kg/injection, schedule: Q01DX009 (ip), vehicle: saline): 95 % of control
- T/C (endpoint: mean survival time, dose: 150.0 mg/kg/injection, schedule: Q01DX009 (ip), vehicle: saline): 92 % of control
- T/C (endpoint: mean survival time, dose: 300.0 mg/kg/injection, schedule: Q01DX009 (ip), vehicle: saline): 95 % of control

SMILES: CN(C)CCCN1CCC2(CC1)NC(=O)NC2=O
- T/C [1]: 103 % of control
- T/C [2]: 103 % of control
- T/C [3]: 103 % of control

SMILES: O=C(NC1CCCCC1)NC1CCCCC1
- T/C [4]: 95 % of control
- T/C [5]: 88 % of control
- T/C [6]: 87 % of control

SMILES: CCCCNc1nc2ccccc2[nH]1
- T/C (endpoint: mean survival time, dose: 5.0 mg/kg/injection, schedule: Q01DX009 (ip), vehicle: acetone): 98 % of control
- T/C (endpoint: mean survival time, dose: 10.0 mg/kg/injection, schedule: Q01DX001 (ip), vehicle: saline): 103 % of control
- T/C (endpoint: mean survival time, dose: 10.0 mg/kg/injection, schedule: Q01DX009 (ip), vehicle: acetone): 98 % of control
- T/C (endpoint: mean survival time, dose: 20.0 mg/kg/injection, schedule: Q01DX001 (ip), vehicle: saline): 101 % of control
- T/C (endpoint: mean survival time, dose: 20.0 mg/kg/injection, schedule: Q01DX009 (ip), vehicle: acetone): 110 % of control
- T/C (endpoint: mean survival time, dose: 40.0 mg/kg/injection, schedule: Q01DX001 (ip), vehicle: saline): 101 % of control

SMILES: OC(C#Cc1ccccc1)c1ccccc1 (stereo unspecified)
- T/C [7]: 105 % of control
- T/C [4]: 100 % of control
- T/C [8]: 95 % of control
- T/C [5]: 88 % of control and 89 % of control
- T/C [9]: 101 % of control
- T/C [6]: 98 % of control

SMILES: CCCCCCCCC(=O)Cl
- T/C [1]: 100 % of control
- T/C [2]: 100 % of control
- T/C [3]: 103 % of control

SMILES: Cl/C=C\C[N+]12CN3CN(CN(C3)C1)C2
- T/C (endpoint: mean survival time, dose: 25.0 mg/kg/injection, schedule: Q04DX003 (ip), vehicle: saline): 100 % of control
- T/C (endpoint: mean survival time, dose: 50.0 mg/kg/injection, schedule: Q04DX003 (ip), vehicle: saline): 94 % of control

SMILES: CCCc1cc2c3c(c(=O)oc2cc1OC)CCCC3
- T/C [8]: 93 % of control
- T/C [9]: 104 % of control
- T/C [10]: 93 % of control

SMILES: N#Cc1ccc(Oc2ccc(C#N)cc2)cc1
- T/C [8]: 100 % of control
- T/C [9]: 97 % of control
- T/C [10]: 101 % of control

SMILES: N#CC1(Nc2ccc3c4c(cccc24)CC3)CCCCC1
- T/C [11]: 95 % of control
- T/C [12]: 109 % of control
- T/C [13]: 95 % of control

SMILES: O=C(COc1cccc(Cl)c1Cl)NCc1ccc(Cl)cc1
- T/C [4]: 100 % of control
- T/C [5]: 97 % of control
- T/C [6]: 96 % of control

SMILES: c1ccc(-c2nnc(-c3ccccn3)s2)nc1
- T/C (endpoint: mean survival time, dose: 50.0 mg/kg/injection, schedule: Q01DX001 (ip), vehicle: water): 108 % of control
- T/C (endpoint: mean survival time, dose: 100.0 mg/kg/injection, schedule: Q01DX001 (ip), vehicle: water): 103 % of control
- T/C (endpoint: mean survival time, dose: 200.0 mg/kg/injection, schedule: Q01DX001 (ip), vehicle: water): 106 % of control
- T/C (endpoint: mean survival time, dose: 400.0 mg/kg/injection, schedule: Q01DX001 (ip), vehicle: water): 111 % of control

SMILES: N#CCCC(C#N)(C#N)CCC#N
- T/C (endpoint: mean survival time, dose: 175.0 mg/kg/injection, schedule: Q01DX001 (ip), vehicle: saline): 97 % of control
- T/C (endpoint: mean survival time, dose: 265.0 mg/kg/injection, schedule: Q01DX001 (ip), vehicle: saline): 100 % of control
- T/C [14]: 96 % of control
- T/C (endpoint: mean survival time, dose: 600.0 mg/kg/injection, schedule: Q01DX001 (ip), vehicle: saline): 91 % of control

SMILES: NC(=O)c1ccc[n+](CCF)c1
- T/C [15]: 98 % of control
- T/C [16]: 98 % of control
- T/C [14]: 104 % of control

SMILES: CN=C(NN)Nc1ccccc1
- T/C (endpoint: mean survival time, dose: 87.5 mg/kg/injection, schedule: Q04DX003 (ip), vehicle: saline): 96 % of control
- T/C (endpoint: mean survival time, dose: 175.0 mg/kg/injection, schedule: Q04DX003 (ip), vehicle: saline): 104 % of control
- T/C (endpoint: mean survival time, dose: 350.0 mg/kg/injection, schedule: Q04DX003 (ip), vehicle: saline): 93 % of control

SMILES: COC(=O)c1ccccc1N=NNc1ccccc1C(=O)OC
- T/C [11]: 92 % of control
- T/C [17]: 107 % of control
- T/C [12]: 89 % of control
- T/C [18]: 111 % of control
- T/C [19]: 98 % of control

SMILES: NC(N)=NC(CC(=O)O)C(=O)O (stereo unspecified)
- T/C (endpoint: mean survival time, dose: 100.0 mg/kg/injection, schedule: Q01DX Z (ip), vehicle: methylcellulose (MC)): 92 % of control
- T/C (endpoint: mean survival time, dose: 200.0 mg/kg/injection, schedule: Q01DX Z (ip), vehicle: methylcellulose (MC)): 92 % of control

SMILES: CC(=Nc1cc(C)ccc1C)c1c(O)cc(C)oc1=O
- T/C (endpoint: mean survival time, dose: 100.0 mg/kg/injection, schedule: Q01DX009 (ip), vehicle: Klucel (hydroxypropylcellulose) (HPC)): 97 % of control
- T/C (endpoint: mean survival time, dose: 200.0 mg/kg/injection, schedule: Q01DX009 (ip), vehicle: Klucel (hydroxypropylcellulose) (HPC)): 97 % of control
- T/C (endpoint: mean survival time, dose: 400.0 mg/kg/injection, schedule: Q01DX009 (ip), vehicle: Klucel (hydroxypropylcellulose) (HPC)): 103 % of control

SMILES: COc1cc([N+](=O)[O-])ccc1NC(=S)NC(=O)c1ccc(Cl)cc1Cl
- T/C [20]: 92 % of control
- T/C [4]: 91 % of control and 92 % of control
- T/C [11]: 104 % of control and 87 % of control
- T/C [8]: 98 % of control
- T/C [21]: 92 % of control
- T/C [5]: 95 % of control and 97 % of control
- T/C [12]: 93 % of control and 97 % of control
- T/C [9]: 92 % of control
- T/C [22]: 90 % of control
- T/C [6]: 93 % of control and 94 % of control
- T/C [13]: 95 % of control and 87 % of control
- T/C [10]: 88 % of control

SMILES: Cc1nc(N)nc(N)c1CCCc1ccccc1
- T/C (endpoint: mean survival time, dose: 1.56 mg/kg/injection, schedule: Q01DX001 (ip), vehicle: saline with Tween-80): 93 % of control
- T/C (endpoint: mean survival time, dose: 3.13 mg/kg/injection, schedule: Q01DX001 (ip), vehicle: saline with Tween-80): 93 % of control
- T/C (endpoint: mean survival time, dose: 6.25 mg/kg/injection, schedule: Q01DX001 (ip), vehicle: saline with Tween-80): 95 % of control and 97 % of control

SMILES: C[N+](C)(C)CCOC(=O)CCC(=O)OCC[N+](C)(C)C
- T/C (endpoint: mean survival time, dose: 1.56 mg/kg/injection, schedule: Q01DX009 (ip), vehicle: saline): 94 % of control
- T/C (endpoint: mean survival time, dose: 3.12 mg/kg/injection, schedule: Q01DX009 (ip), vehicle: saline): 94 % of control

SMILES: Nc1c[nH]c(=O)[nH]c1=O
- T/C [15]: 89 % of control
- T/C [16]: 95 % of control
- T/C [14]: 97 % of control

SMILES: CCN(C(=O)Nc1ccc(F)c(Cl)c1)c1ccc(Cl)cc1
- T/C [7]: 100 % of control
- T/C [4]: 96 % of control
- T/C [5]: 96 % of control

SMILES: CCCCCC[C@@H](O)C/C=C\CCCCCCCC(=O)OCCO
- T/C (endpoint: median survival time, dose: 25.0 mg/kg/injection, schedule: Q01DX009 (ip), vehicle: saline): 101 % of control
- T/C (endpoint: median survival time, dose: 50.0 mg/kg/injection, schedule: Q01DX009 (ip), vehicle: saline): 100 % of control
- T/C (endpoint: median survival time, dose: 100.0 mg/kg/injection, schedule: Q01DX009 (ip), vehicle: saline): 120 % of control
- T/C (endpoint: median survival time, dose: 200.0 mg/kg/injection, schedule: Q01DX009 (ip), vehicle: saline): 106 % of control
- T/C (endpoint: median survival time, dose: 400.0 mg/kg/injection, schedule: Q01DX009 (ip), vehicle: saline): 106 % of control
- T/C (endpoint: median survival time, dose: 800.0 mg/kg/injection, schedule: Q01DX009 (ip), vehicle: saline): 101 % of control

SMILES: OC1C2CCN(CC2)C1CNC12CC3CC(CC(C3)C1)C2 (stereo unspecified)
- T/C (endpoint: mean survival time, dose: 100.0 mg/kg/injection, schedule: Q04DX003 (ip), vehicle: saline): 97 % of control
- T/C (endpoint: mean survival time, dose: 200.0 mg/kg/injection, schedule: Q04DX003 (ip), vehicle: saline): 96 % of control

SMILES: CSc1ccccc1C=Nc1ccccc1O
- T/C [20]: 101 % of control
- T/C [21]: 98 % of control
- T/C [22]: 103 % of control

SMILES: O=C1c2c(ccc3ccccc23)CCC1Br (stereo unspecified)
- T/C [17]: 97 % of control
- T/C [18]: 101 % of control
- T/C [19]: 103 % of control

SMILES: ClCC1CC2CC1C1OC21 (stereo unspecified)
- T/C [15]: 106 % of control

SMILES: O=C(NO)c1cc(Br)cc(Br)c1O
- T/C (endpoint: mean survival time, dose: 25.0 mg/kg/injection, schedule: Q01DX009 (ip), vehicle: saline with Tween-80): 98 % of control
- T/C [7]: 102 % of control
- T/C [4]: 100 % of control
- T/C [11]: 93 % of control
- T/C [12]: 97 % of control
- T/C [13]: 200 % of control
